Laboratory results as given in patent publication US9073863B2, “Cyanoquinoline compounds having activity in correcting mutant-CFTR processing and increasing ion transport and uses thereof” (The Regents of the University of California, priority 2011, dated 2015).

Legend:
ΔF508-CFTR = biological target: T1, ΔF508-CFTR (Homo sapiens, UniProt P13569, DEL508-508); assay: Short-circuit current potentiator assay in ΔF508-CFTR expressing FRT cells after low-temperature rescue; format: cell-based; settings: 27° C. for 24 h prior to measurement, in the presence of forskolin; read-out: Apparent EC50 for potentiator activity as measured by short-circuit current
T1 construct: expressed in transfected cells; host or cells: Fischer rat thyroid (FRT) epithelial cells, stably transfected
Experimental: Short-circuit current measurements. ΔF508-CFTR-expressing FRT cells were cultured on Snapwell inserts for 7-9 days. For corrector testing, test compounds were incubated with FRT cells for 18-24 h at 37° C. prior to measurements. For potentiator testing, the FRT cells were incubated for 18-24 h at 27° C. prior to measurements. The basolateral solution contained 130 mM NaCl, 2.7 mM KCl, 1.5 mM KH2PO4, 1 mM CaCl2, 0.5 mM MgCl2, 10 mM glucose, and 10 mM Na-HEPES (pH 7.3). In the apical bathing solution, 65 mM NaCl was replaced by Na gluconate, and CaCl2 was increased to 2 mM. Solutions were bubbled with air and maintained at 37° C. […]
Short-circuit current measurements were performed to further characterize Compound 22 potentiator activity in which apical membrane chloride current was measured in ΔF508-CFTR expressing FRT cells, after low-temperature rescue, in response to Compound 22 additions. […]
Short-circuit current was measured in an electrophysiology assay to verify corrector activity. Apical membrane chloride current was measured in ΔF508-CFTR expressing FRT cells after basolateral membrane permeabilization and in the presence of a transepithelial chloride gradient. […] To assay potentiator activity apical membrane chloride current was measured after low-temperature rescue, in response to CP-3 addition. […]

wildtype CFTR = biological target: T2, wildtype CFTR (Homo sapiens, UniProt P13569); assay: Short-circuit current in FRT cells expressing wildtype CFTR; format: cell-based; settings: added after 0.25 or 0.5 μM forskolin
T2 construct: expressed in transfected cells; host or cells: Fischer rat thyroid (FRT) epithelial cells, stably transfected
Experimental: To further investigate Compound 22 potentiator action, short-circuit current was measured in FRT cells expressing wildtype CFTR (FIG. 5B). Studies were done as in FIG. 5A except that low concentrations of forskolin (0-0.5 μM) were used because higher concentrations fully activate wildtype CFTR and thus would mask Compound 22 potentiator action. As found for ΔF508-CFTR, there was little effect of Compound 22 in the absence of forskolin. In each experiment, after Compound 22 additions, 10 μM forskolin was added to fully activate wildtype CFTR, followed by 50 μM genistein, which had little effect, followed by 10 μM CFTRinh-172, which inhibited all chloride current.

T2 sequence (P13569 whole entry): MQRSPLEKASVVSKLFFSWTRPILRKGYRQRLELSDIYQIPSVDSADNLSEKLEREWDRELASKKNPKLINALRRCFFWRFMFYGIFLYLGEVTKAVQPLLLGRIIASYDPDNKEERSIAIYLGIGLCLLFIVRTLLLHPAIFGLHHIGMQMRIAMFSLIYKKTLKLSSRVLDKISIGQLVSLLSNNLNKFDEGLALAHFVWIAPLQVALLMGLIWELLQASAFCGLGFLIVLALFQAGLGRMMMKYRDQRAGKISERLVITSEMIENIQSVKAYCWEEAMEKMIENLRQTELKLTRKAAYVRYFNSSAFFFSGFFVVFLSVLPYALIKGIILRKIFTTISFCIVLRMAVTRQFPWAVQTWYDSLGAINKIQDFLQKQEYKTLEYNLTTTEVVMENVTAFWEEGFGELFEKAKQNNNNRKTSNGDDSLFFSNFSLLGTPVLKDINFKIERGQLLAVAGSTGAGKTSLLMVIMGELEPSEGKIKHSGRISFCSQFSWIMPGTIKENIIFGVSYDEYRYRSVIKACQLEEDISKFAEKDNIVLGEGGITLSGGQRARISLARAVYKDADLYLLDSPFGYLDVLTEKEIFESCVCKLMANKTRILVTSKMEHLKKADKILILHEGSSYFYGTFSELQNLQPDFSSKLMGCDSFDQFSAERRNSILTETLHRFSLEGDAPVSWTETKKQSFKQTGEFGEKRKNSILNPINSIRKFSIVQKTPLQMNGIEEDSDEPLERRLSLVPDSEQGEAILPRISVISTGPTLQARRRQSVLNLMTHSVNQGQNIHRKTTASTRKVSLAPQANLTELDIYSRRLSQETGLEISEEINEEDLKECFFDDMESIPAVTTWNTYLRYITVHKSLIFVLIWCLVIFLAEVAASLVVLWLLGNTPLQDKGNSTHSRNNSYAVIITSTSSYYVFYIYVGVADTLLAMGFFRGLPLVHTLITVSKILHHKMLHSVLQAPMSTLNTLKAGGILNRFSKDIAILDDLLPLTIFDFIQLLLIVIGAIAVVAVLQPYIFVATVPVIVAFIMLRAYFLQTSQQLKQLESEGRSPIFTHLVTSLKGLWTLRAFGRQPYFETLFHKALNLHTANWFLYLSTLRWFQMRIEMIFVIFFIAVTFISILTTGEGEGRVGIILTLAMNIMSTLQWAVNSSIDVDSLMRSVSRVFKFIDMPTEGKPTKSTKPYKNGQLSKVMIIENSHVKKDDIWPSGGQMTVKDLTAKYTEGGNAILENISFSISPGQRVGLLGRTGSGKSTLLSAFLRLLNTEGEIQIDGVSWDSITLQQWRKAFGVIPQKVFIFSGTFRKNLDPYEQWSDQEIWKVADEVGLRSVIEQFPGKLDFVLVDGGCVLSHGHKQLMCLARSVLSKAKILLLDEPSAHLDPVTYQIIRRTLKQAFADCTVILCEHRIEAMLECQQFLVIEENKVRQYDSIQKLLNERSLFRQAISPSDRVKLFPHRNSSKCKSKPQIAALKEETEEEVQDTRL
T1 sequence (P13569 with tags, fused parts or gaps DEL508-508): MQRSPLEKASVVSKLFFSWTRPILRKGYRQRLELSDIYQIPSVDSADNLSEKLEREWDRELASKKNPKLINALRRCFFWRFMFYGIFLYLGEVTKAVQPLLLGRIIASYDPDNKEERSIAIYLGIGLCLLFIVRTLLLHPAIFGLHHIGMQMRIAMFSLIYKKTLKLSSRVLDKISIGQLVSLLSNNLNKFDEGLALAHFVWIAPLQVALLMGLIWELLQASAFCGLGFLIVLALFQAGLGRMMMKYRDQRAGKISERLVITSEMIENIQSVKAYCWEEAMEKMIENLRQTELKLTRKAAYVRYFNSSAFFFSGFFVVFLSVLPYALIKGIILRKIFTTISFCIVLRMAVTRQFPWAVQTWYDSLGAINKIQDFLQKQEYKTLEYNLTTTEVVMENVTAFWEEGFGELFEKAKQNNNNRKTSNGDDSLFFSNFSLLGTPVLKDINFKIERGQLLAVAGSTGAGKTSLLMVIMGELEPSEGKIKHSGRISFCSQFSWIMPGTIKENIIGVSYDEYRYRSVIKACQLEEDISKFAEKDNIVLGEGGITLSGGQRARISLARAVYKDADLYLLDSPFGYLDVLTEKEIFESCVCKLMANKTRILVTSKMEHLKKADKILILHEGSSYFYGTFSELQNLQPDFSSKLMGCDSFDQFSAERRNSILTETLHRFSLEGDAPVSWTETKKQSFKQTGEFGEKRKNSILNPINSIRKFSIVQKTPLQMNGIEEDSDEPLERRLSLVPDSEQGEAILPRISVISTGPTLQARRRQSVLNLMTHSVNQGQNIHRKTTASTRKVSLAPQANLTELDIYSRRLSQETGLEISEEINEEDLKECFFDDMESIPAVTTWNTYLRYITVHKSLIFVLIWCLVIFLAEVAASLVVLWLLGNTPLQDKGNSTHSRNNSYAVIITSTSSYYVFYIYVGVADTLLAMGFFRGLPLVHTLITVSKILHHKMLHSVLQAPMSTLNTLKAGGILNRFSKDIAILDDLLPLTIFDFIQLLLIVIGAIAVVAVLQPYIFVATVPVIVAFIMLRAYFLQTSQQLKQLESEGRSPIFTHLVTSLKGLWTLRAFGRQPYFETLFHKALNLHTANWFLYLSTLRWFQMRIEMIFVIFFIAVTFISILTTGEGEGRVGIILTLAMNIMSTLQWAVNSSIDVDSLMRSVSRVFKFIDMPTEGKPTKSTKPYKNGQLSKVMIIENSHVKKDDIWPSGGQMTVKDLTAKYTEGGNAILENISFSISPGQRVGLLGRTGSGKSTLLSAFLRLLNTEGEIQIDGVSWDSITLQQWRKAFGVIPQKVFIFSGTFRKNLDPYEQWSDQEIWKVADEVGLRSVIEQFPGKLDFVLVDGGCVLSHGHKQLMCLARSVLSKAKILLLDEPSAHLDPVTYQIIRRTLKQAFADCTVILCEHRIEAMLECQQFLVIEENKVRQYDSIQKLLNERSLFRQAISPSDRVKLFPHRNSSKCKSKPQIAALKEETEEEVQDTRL

EC50 (ΔF508-CFTR): ~10 µM | activation of wildtype CFTR, in words (wildtype CFTR): partially activated | EC50 (wildtype CFTR; read-out: EC50 of wildtype CFTR activation): ~10 µM
Structure (SMILES): COc1cccc(C(=O)NCCNc2nc3cc(C)cc(C)c3cc2C#N)c1 [Compound 22, N-(2-((3-Cyano-5,7-dimethylquinolin-2-yl)amino)ethyl)-3-methoxybenzamide]
